Among the data in ChEMBL document CHEMBL1126714, “Structure, DNA minor groove binding, and base pair specificity of alkyl- and aryl-linked bis(amidinobenzimidazoles) and bis(amidinoindoles)” (J Med Chem, 1993) are Tm and Ratio values, retold here.

A word on the Tm: it is the temperature at which the thermal transition is half complete.

Assay type in all cases: nucleic-acid assay
The subject of test [1] is Nucleic Acid. Nature of the test: Thermal denaturation in alternating poly(dG-dC)-poly(dG-dC) homopolymer (GC).
Another test deals with Calf thymus DNA. Nature of the test: Thermal denaturation in sonicated calf thymus DNA (CT DNA). The following applies: Bos taurus.
The subject of test [2] is Nucleic Acid. Nature of the test: Thermal denaturation in alternating poly(dA-dT)poly(dA-dT) homopolymer (AT).
Test [3] has as its system Nucleic Acid. Put plainly: Thermal denaturation in sonicated poly(dA)-poly(dT) homopolymer (AT).
The test system of test [4] is Nucleic Acid. Put plainly: Ratio between poly-dAdT and poly-dGdC binding.

In the case of `N=C(N)c1ccc2c(ccn2Cc2cccc(Cn3ccc4cc(C(=N)N)ccc43)c2)c1`, the Tm amounted to 4 °C with Nucleic Acid [1], 8.1 °C in the test on Calf thymus DNA, 9.2 °C with Nucleic Acid [2] and 8.1 °C with Nucleic Acid [3]. The Ratio in the test on Nucleic Acid [4] is 2.3.
On to `CNc1ccc2[nH]c(CCc3nc4cc(NC)ccc4[nH]3)nc2c1`, for which the Tm in the test with Nucleic Acid [1] amounted to 3.9 °C; in the test on Calf thymus DNA it was 12.8 °C; with Nucleic Acid [2], 14.1 °C; in the test with Nucleic Acid [3], 34.2 °C. Besides, the Ratio in the test on Nucleic Acid [4] amounted to 4.
In the same order, the values of `N=C(N)c1ccc2[nH]c(CCc3nc4cc(C(=N)N)ccc4[nH]3)nc2c1` are 4 °C, 18.5 °C, 37.2 °C, 42.4 °C and 4.
In the same order, the values of `N=C(N)c1ccc2[nH]c(/C=C/c3nc4cc(C(=N)N)ccc4[nH]3)nc2c1` are 5.8 °C, 21.8 °C, 42.4 °C, 46.1 °C and 7.
On the same counts, the results for `N=C(N)c1ccc2c(ccn2CCCCCn2ccc3cc(C(=N)N)ccc32)c1` are 5 °C, 10.2 °C, 12.9 °C, 15.3 °C and 2.6.
Turning to `O=[N+]([O-])c1ccc2[nH]c(CCc3nc4cc([N+](=O)[O-])ccc4[nH]3)nc2c1`, the midpoint of thermal melting (Tm) in the test on Nucleic Acid [1] was 2.6 °C; in the test with Calf thymus DNA it was 1.5 °C; with Nucleic Acid [2], 0.2 °C; with Nucleic Acid [3], 0.5 °C.
On to `N=C(N)c1ccc2c(ccn2CCCCCCn2ccc3cc(C(=N)N)ccc32)c1`, for which the Tm in the test on Nucleic Acid [1] was found to be 5.9 °C; in the test on Calf thymus DNA, 10.5 °C; in the test on Nucleic Acid [2], 13.4 °C; in the test with Nucleic Acid [3], 17.7 °C. For the same molecule, the Ratio with Nucleic Acid [4] is 2.3.
In the same order, the values of `C1=NCCCN1Cc1ccc2[nH]c(CCc3nc4cc(CN5C=NCCC5)ccc4[nH]3)nc2c1` are 1.6 °C, 13.3 °C, 28.9 °C, 30.7 °C and 18.
In the same order, the values of `c1c[nH]c(-c2ccc(-c3cc4ccc(-c5ncc[nH]5)cc4[nH]3)cc2)n1` are 9.4 °C, 22.4 °C, 42.7 °C, 45.3 °C and 5.
For `c1cc2[nH]c(CCc3nc4cc(N5CCOCC5)ccc4[nH]3)nc2cc1N1CCOCC1`, the melting temperature (Tm) in the test with Nucleic Acid [1] is -0.3 °C; in the test on Calf thymus DNA, 0.6 °C; in the test with Nucleic Acid [2] it was 0.8 °C; with Nucleic Acid [3], 0.9 °C.
Regarding `c1cc2[nH]c(CCCCc3nc4cc(C5=NCCN5)ccc4[nH]3)nc2cc1C1=NCCN1`, the Tm in the test with Nucleic Acid [1] was 4.6 °C; with Calf thymus DNA, 15.3 °C; with Nucleic Acid [2] it was 28.9 °C; in the test with Nucleic Acid [3], 34.5 °C. For the same molecule, in the test on Nucleic Acid [4], the Ratio was found to be 6.
Take `N=C(N)c1ccc2[nH]c(-c3cccc(-c4nc5cc(C(=N)N)ccc5[nH]4)c3)nc2c1`: the Tm amounted to 5.6 °C with Nucleic Acid [1], 12.8 °C in the test with Calf thymus DNA, 23.9 °C in the test with Nucleic Acid [2] and 34.6 °C in the test with Nucleic Acid [3]. In the test on Nucleic Acid [4], the Ratio is 4.
For `N=C(N)c1ccc(OCCCCCOc2ccc(C(=N)N)cc2)cc1`, the Tm in the test with Nucleic Acid [1] turned out to be 3.2 °C; in the test on Calf thymus DNA it was 10.7 °C; in the test on Nucleic Acid [2], 20.2 °C; with Nucleic Acid [3], 22.9 °C. For the same molecule, the Ratio in the test with Nucleic Acid [4] was found to be 6.
Turning to `N=C(N)c1ccc2c(ccn2Cc2ccc(Cn3ccc4cc(C(=N)N)ccc43)cc2)c1`, the midpoint of thermal melting (Tm) in the test on Nucleic Acid [1] amounted to 5.4 °C; in the test with Calf thymus DNA, 9.3 °C; in the test on Nucleic Acid [2] it was 11.9 °C; with Nucleic Acid [3], 10.8 °C. For the same molecule, the Ratio in the test on Nucleic Acid [4] amounted to 2.2.
For `c1cc2[nH]c(CCc3nc4cc(C5=NCCCN5)ccc4[nH]3)nc2cc1C1=NCCCN1`, the Tm is 2.7 °C in the test on Nucleic Acid [1], 19.7 °C with Calf thymus DNA, 39.5 °C in the test with Nucleic Acid [2] and 45.1 °C with Nucleic Acid [3]. For the same molecule, the Ratio in the test on Nucleic Acid [4] came out at 15.
As to `c1cc2[nH]c(CCc3nc4cc(C5=NCCN5)ccc4[nH]3)nc2cc1C1=NCCN1`, the Tm was determined as 3 °C with Nucleic Acid [1], 18.5 °C in the test with Calf thymus DNA, 34.6 °C in the test with Nucleic Acid [2] and 40 °C with Nucleic Acid [3].
Consider `N=C(N)c1ccc(-c2cc3ccc(C(=N)N)cc3[nH]2)cc1`, for which the melting temperature (Tm) in the test on Nucleic Acid [1] stood at 6.9 °C; in the test on Calf thymus DNA it was 21.5 °C; in the test with Nucleic Acid [2] it was 40.5 °C; with Nucleic Acid [3] it was 38.8 °C. Further, the Ratio with Nucleic Acid [4] is 6.
In the same order, the values of `CC[n+]1c(-c2ccccc2)c2cc(N)ccc2c2ccc(N)cc21` are 5.3 °C, 12.4 °C, 16.8 °C, 9.9 °C and 3.
With `N=C(N)c1ccc2[nH]c(Cc3nc4ccccc4[nH]3)nc2c1`, the Tm turned out to be 0.2 °C in the test on Nucleic Acid [1], 1.4 °C with Calf thymus DNA, 1 °C with Nucleic Acid [2] and 1.3 °C in the test with Nucleic Acid [3].
As for `N=C(N)c1ccc2[nH]c(-c3ccc(-c4nc5cc(C(=N)N)ccc5[nH]4)cc3)nc2c1`, the melting temperature (Tm) in the test with Nucleic Acid [1] worked out at 3.1 °C; in the test on Calf thymus DNA, 13.3 °C; with Nucleic Acid [2], 21.7 °C; in the test with Nucleic Acid [3] it was 27.5 °C. The Ratio in the test with Nucleic Acid [4] is 7.
Consider `C/C(=C(/C)c1nc2cc(C(=N)N)ccc2[nH]1)c1nc2cc(C(=N)N)ccc2[nH]1`, for which the Tm in the test on Nucleic Acid [1] came out at 4.6 °C; in the test on Calf thymus DNA, 14.1 °C; in the test with Nucleic Acid [2] it was 15.6 °C; with Nucleic Acid [3] it was 17.3 °C. Besides, the Ratio in the test on Nucleic Acid [4] stood at 3.
Regarding `CC(C)NC(=N)c1ccc2[nH]c(CCc3nc4cc(C(=N)NC(C)C)ccc4[nH]3)nc2c1`, the Tm was found to be 3.3 °C in the test with Nucleic Acid [1], 19.2 °C in the test on Calf thymus DNA, 32.9 °C in the test with Nucleic Acid [2] and 37.3 °C in the test with Nucleic Acid [3]. Besides, the Ratio in the test on Nucleic Acid [4] came out at 10.
`c1cc2[nH]c(Cc3nc4cc(C5=NCCN5)ccc4[nH]3)nc2cc1C1=NCCN1`: the melting temperature (Tm) is 4.1 °C with Nucleic Acid [1], 6.9 °C with Calf thymus DNA, 10.7 °C in the test on Nucleic Acid [2] and 13.5 °C in the test with Nucleic Acid [3]. The Ratio in the test with Nucleic Acid [4] came to 3.
As to `c1ccc2[nH]c(CCc3nc4ccccc4[nH]3)nc2c1`, the midpoint of thermal melting (Tm) in the test on Nucleic Acid [1] was determined as 1 °C; in the test on Calf thymus DNA it was 4.3 °C; with Nucleic Acid [2] it was 0.1 °C; in the test on Nucleic Acid [3], 2.1 °C.
On to `CC(C)NC(=N)c1ccc2[nH]c(-c3ccc(-c4nc5cc(C(=N)NC(C)C)ccc5[nH]4)cc3)nc2c1`, for which the melting temperature (Tm) in the test with Nucleic Acid [1] is 5.6 °C; with Calf thymus DNA, 22.3 °C; in the test with Nucleic Acid [2], 45 °C; in the test with Nucleic Acid [3] it was 44.3 °C. Moreover, the Ratio in the test on Nucleic Acid [4] stood at 8.
For the molecule `N=C(N)c1ccc2[nH]c(CCCCc3nc4cc(C(=N)N)ccc4[nH]3)nc2c1`, the melting temperature (Tm) was 3.3 °C with Nucleic Acid [1], 15.9 °C in the test on Calf thymus DNA, 31.3 °C in the test with Nucleic Acid [2] and 33.5 °C with Nucleic Acid [3]. The Ratio in the test on Nucleic Acid [4] came to 9.
With `c1cc2[nH]c(CCCc3nc4cc(C5=NCCN5)ccc4[nH]3)nc2cc1C1=NCCN1`, the Tm worked out at 3.3 °C in the test with Nucleic Acid [1], 9.9 °C with Calf thymus DNA, 20.1 °C in the test with Nucleic Acid [2] and 24.8 °C in the test with Nucleic Acid [3]. The Ratio in the test with Nucleic Acid [4] is 6.
On the same counts, the results for `N=C(N)c1ccc2c(ccn2CCCCn2ccc3cc(C(=N)N)ccc32)c1` are 7.3 °C, 12.1 °C, 16.3 °C, 18.2 °C and 2.2.
In the same order, the values of `CC(C)NC(=N)c1ccc2[nH]c(/C=C/c3nc4cc(C(=N)NC(C)C)ccc4[nH]3)nc2c1` are 5.5 °C, 22.8 °C, 22.5 °C, 31.6 °C and 5.
In the case of `Nc1ccc2nc(CCc3nc4ccc(N)cc4[nH]3)[nH]c2c1`, the Tm is 2.6 °C in the test with Nucleic Acid [1], 1.6 °C in the test with Calf thymus DNA, 0.6 °C with Nucleic Acid [2] and 3 °C in the test on Nucleic Acid [3].
Take `N=C(N)c1ccc2[nH]c(CCCCCc3nc4cc(C(=N)N)ccc4[nH]3)nc2c1`: the Tm was 3.3 °C in the test with Nucleic Acid [1], 10.1 °C with Calf thymus DNA, 18.3 °C in the test with Nucleic Acid [2] and 24.7 °C in the test on Nucleic Acid [3]. Moreover, the Ratio in the test with Nucleic Acid [4] amounted to 5.
In the same order, the values of `N=C(N)c1ccc2[nH]c(CCCCCCCCc3nc4cc(C(=N)N)ccc4[nH]3)nc2c1` are 3.2 °C, 10.2 °C, 21.2 °C, 22.8 °C and 7.
In the same order, the values of `CN1CCN(c2ccc3[nH]c(-c4ccc5[nH]c(-c6ccc(O)cc6)nc5c4)nc3c2)CC1` are 2.5 °C, 14.1 °C, 24.1 °C, 32.4 °C and 10.
`N=C(N)c1ccc2[nH]c(CCCc3nc4cc(C(=N)N)ccc4[nH]3)nc2c1`: the Tm with Nucleic Acid [1] came to 3.3 °C; with Calf thymus DNA, 10.6 °C; in the test on Nucleic Acid [2], 20.1 °C; in the test with Nucleic Acid [3] it was 30.6 °C. In addition, the Ratio in the test with Nucleic Acid [4] came out at 6.
`N=C(N)c1ccc2nc(Cc3nc4ccc(C(=N)N)cc4[nH]3)[nH]c2c1`: the midpoint of thermal melting (Tm) with Nucleic Acid [1] stood at 3.5 °C; with Calf thymus DNA, 7.6 °C; with Nucleic Acid [2], 11.5 °C; in the test on Nucleic Acid [3] it was 9.2 °C. The Ratio in the test on Nucleic Acid [4] was found to be 3.
As to `N=C(N)c1ccc2[nH]c(CCCCCCc3nc4cc(C(=N)N)ccc4[nH]3)nc2c1`, the midpoint of thermal melting (Tm) is 3.5 °C in the test on Nucleic Acid [1], 13.5 °C with Calf thymus DNA, 28 °C in the test on Nucleic Acid [2] and 34 °C with Nucleic Acid [3]. In addition, in the test on Nucleic Acid [4], the Ratio turned out to be 8.
Turning to `Cn1cc(NC(=O)c2cc(NC(=O)CNC(=N)N)cn2C)cc1C(=O)NCCC(=N)N`, the Tm came out at 1.1 °C in the test with Nucleic Acid [1], 19 °C in the test on Calf thymus DNA, 35.1 °C with Nucleic Acid [2] and 46.6 °C in the test on Nucleic Acid [3]. The Ratio in the test with Nucleic Acid [4] amounted to 32.
With `N=C(N)c1ccc2c(ccn2CCCn2ccc3cc(C(=N)N)ccc32)c1`, the midpoint of thermal melting (Tm) in the test on Nucleic Acid [1] was found to be 6.5 °C; in the test on Calf thymus DNA, 13.7 °C; in the test on Nucleic Acid [2], 20.3 °C; in the test on Nucleic Acid [3], 19.2 °C. In the test on Nucleic Acid [4], the Ratio stood at 3.1.
For the molecule `OC/C=N\c1ccc2[nH]c(CCc3nc4cc(/N=C/CO)ccc4[nH]3)nc2c1`, the melting temperature (Tm) in the test with Nucleic Acid [1] amounted to 0.7 °C; in the test on Calf thymus DNA, 2 °C; with Nucleic Acid [2], 1.4 °C; with Nucleic Acid [3], 4.5 °C. Moreover, the Ratio with Nucleic Acid [4] stood at 3.
